The experiment concerns the target 5-hydroxytryptamine receptor 6 (Homo sapiens, UniProt P50406). The experiment is described as follows: Functional Assay: Functional assay using 5-HT6 receptors.

The results in this text go back to ChEMBL document CHEMBL3639354, “(EN) 3-sulfonyl-pyrazolo[1,5-a] pyrimidines / antagonists of serotonin 5-HT6 receptors, methods for the production and the use thereof” (2013).

pIC50: −log10 of the molar value.

Sequence of 5-hydroxytryptamine receptor 6 (P50406 whole entry): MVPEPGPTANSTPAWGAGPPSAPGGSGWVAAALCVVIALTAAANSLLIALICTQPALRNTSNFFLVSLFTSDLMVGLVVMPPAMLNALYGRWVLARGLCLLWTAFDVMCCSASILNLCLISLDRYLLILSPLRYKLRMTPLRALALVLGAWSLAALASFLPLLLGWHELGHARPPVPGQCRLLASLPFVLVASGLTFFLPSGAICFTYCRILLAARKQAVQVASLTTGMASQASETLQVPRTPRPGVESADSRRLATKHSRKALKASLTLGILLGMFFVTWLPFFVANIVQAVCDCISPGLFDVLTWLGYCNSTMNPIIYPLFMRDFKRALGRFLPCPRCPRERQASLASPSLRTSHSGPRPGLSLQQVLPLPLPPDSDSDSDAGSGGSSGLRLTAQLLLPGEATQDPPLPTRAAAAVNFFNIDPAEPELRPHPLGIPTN

In turn, `CSc1nn2c(C)cc(C)nc2c1S(=O)(=O)c1ccc(F)c(Cl)c1` showed a pIC50 of 7.34.
